target: Protein cereblon/Tyrosine-protein kinase JAK2 (Homo sapiens, UniProt O60674+Q96SW2); assay: PROTAC activity at CRBN/JAK2 in human MHHCALL4 cells assessed as protein degradation by immunoblot analysis; format: cell-based
Sequence (O60674 whole entry): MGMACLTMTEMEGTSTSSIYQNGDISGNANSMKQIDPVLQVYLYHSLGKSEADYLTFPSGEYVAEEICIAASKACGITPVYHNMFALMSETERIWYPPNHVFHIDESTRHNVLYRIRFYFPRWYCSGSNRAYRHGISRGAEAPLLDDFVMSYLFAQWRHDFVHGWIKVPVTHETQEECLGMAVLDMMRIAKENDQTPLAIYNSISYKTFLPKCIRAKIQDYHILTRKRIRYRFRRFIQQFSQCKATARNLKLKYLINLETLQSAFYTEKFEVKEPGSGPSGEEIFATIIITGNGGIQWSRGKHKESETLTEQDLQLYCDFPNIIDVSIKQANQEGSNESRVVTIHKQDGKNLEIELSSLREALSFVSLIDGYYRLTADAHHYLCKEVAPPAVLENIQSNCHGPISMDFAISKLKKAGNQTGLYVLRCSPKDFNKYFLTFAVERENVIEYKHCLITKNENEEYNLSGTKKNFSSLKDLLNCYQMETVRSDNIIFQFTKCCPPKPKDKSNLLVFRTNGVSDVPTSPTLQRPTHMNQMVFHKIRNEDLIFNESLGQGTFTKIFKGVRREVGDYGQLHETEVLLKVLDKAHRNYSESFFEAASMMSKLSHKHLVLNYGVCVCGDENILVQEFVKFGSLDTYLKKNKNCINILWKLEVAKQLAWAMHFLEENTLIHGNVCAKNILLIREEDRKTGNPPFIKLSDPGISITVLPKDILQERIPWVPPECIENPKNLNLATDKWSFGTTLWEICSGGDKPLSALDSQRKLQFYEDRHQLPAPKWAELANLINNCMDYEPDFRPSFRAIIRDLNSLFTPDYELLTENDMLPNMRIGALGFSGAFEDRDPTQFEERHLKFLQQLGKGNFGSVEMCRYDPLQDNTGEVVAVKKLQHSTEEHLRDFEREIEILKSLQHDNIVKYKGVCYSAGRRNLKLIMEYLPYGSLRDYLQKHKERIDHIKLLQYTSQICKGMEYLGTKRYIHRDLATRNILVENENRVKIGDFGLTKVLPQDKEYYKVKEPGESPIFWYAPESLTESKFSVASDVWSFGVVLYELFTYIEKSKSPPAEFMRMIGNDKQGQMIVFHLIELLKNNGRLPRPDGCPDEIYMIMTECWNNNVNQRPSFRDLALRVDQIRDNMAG
Sequence (Q96SW2 whole entry): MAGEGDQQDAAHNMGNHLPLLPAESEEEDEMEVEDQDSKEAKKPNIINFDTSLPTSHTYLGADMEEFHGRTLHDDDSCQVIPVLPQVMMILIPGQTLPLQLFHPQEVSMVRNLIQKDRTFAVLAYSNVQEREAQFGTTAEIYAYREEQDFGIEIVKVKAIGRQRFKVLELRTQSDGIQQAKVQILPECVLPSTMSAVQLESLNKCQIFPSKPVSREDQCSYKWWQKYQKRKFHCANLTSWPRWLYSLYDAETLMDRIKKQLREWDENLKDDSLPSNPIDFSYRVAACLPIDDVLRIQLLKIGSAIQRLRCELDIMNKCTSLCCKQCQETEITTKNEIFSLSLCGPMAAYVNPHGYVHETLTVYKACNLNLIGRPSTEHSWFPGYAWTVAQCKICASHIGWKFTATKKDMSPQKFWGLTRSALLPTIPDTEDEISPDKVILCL

SMILES | EC50 [nM]
CCCn1cc(-c2nc(Nc3ccc(C(=O)NCCCCNc4cccc5c4C(=O)N(C4CCC(=O)NC4=O)C5=O)cc3)nc3[nH]ccc23)cn1 (stereo not drawn) | 0.2
CCCn1cc(-c2nc(Nc3ccc(C(=O)NCCOCCOCCOCCOCCOCCOCCNc4cccc5c4C(=O)N(C4CCC(=O)NC4=O)C5=O)cc3)nc3[nH]ccc23)cn1 (stereo not drawn) | 720
CCCn1cc(-c2nc(Nc3ccc(C(=O)NCCCCCNc4cccc5c4CN(C4CCC(=O)NC4=O)C5=O)cc3)nc3[nH]ccc23)cn1 (stereo not drawn) | 0.5
N#CC[C@H](C1CCCC1)n1cc(-c2nc(Nc3ccc(C(=O)NCCCCNc4cccc5c4C(=O)N(C4CCC(=O)NC4=O)C5=O)cc3)nc3[nH]ccc23)cn1 (stereo partly drawn) | 3.9
CCCn1cc(-c2nc(Nc3ccc(C(=O)NCCCNc4cccc5c4C(=O)N(C4CCC(=O)NC4=O)C5=O)cc3)nc3[nH]ccc23)cn1 (stereo not drawn) | 0.5
CCCn1cc(-c2nc(Nc3ccc(C(=O)NCCOCCOCCOCCOCCOCCNc4cccc5c4C(=O)N(C4CCC(=O)NC4=O)C5=O)cc3)nc3[nH]ccc23)cn1 (stereo not drawn) | 1100
CCCn1cc(-c2nc(Nc3ccc(C(=O)NCCOCCOCCOCCOCCNc4cccc5c4C(=O)N(C4CCC(=O)NC4=O)C5=O)cc3)nc3[nH]ccc23)cn1 (stereo not drawn) | 2300
CCCn1cc(-c2nc(Nc3ccc(C(=O)NCCCCCNc4cccc5c4C(=O)N(C4CCC(=O)NC4=O)C5=O)cc3)nc3[nH]ccc23)cn1 (stereo not drawn) | 0.9
